For this assay, the system named is S1P. Nature of the assay: S1P measurements in murine tissue after FTY720 treatment. Type of assay: in vivo. How it is done:
Drug treatments and leukocyte/lymphocyte counts: Four-week old FVB or C3H mice were obtained from Charles River Laboratories (Wilmington, Mass.). Animals were maintained in a pathogen-free facility in microisolator cages. Mice were anaesthetized with isoflurane inhalation, and a single dose of FTY720 (at 1 or 3 mg/kg) or GT11 (at 1, 10 or 100 mg/kg) in sterile water was injected intraperitoneally at time zero. Blood counts were determined by Coulter counter (Coulter Instruments, Hialeah, Fla.) and by manual differential counting. Mice were euthanized by CO2 inhalation at various time points post-injection, followed by tissue harvest. All animal studies were performed in accordance with approved CHORI IACUC protocols.
S1P measurements: S1P was isolated by two-phase lipid extraction, derivatized with OPA and quantitated by HPLC essentially as described (Jiang et al, (2004) Proc Natl Acad Sci USA 101, 17825-17830; Fyrst et al., (2004) J Lipid Res 45, 54-62; Caligan et al., (2000) Anal. Biochem. 281, 36-44). All tissues were weighed prior to snap freezing in liquid nitrogen and were stored at −100° C. until processing. One nanomole of C17-S1P and PSo were added as internal standards before homogenization of tissues. Lipids were extracted with 1 ml mixture of chloroform and methanol (1:2 ratio). Samples were incubated at room temperature with sonication for 3 hours and then dried by speed vac. One ml of 0.1N NaOH in methanol was added for 1 hour at 37° C. to achieve hydrolysis. After addition of 4 ml chloroform and 4 ml 1M KCl, samples were mixed and phases separated by centrifugation. The organic phase was collected and dried for sphingosine determination. The aqueous phase was mixed with 300 μl concentrated HCl and 6 ml chloroform. The phases were separated by centrifugation, and the organic phase was collected and dried for S1P determination. All samples for S1P determination were re-dissolved in methanol. After derivation with OPA, samples were injected onto HPLC for quantification. The mobile phase was methanol:10 mM phosphate buffer (pH 7.2):1M tetrabutylammonium dihydrogen phosphate (TBAP) in water=83:16:1, v/v/v and the flow rate was 1 ml/min.
FTY720 administration minimally affects tissue SIP levels—SK is known to be responsible for S1P synthesis, whereas SPL and S1P phosphatases are responsible for S1P catabolism. Since FTY720 interacts with both SK and SPL and may potentially influence the efficiency of both S1P synthesis and degradation, the sum effect of FTY270 administration on tissue S1P levels was determined. FTY720 treatment was associated with a slight increase in thymic tissue S1P at 36 hours, followed by a return to baseline levels by 48 hours (Table 2). […] S1P levels increased somewhat more dramatically in splenic tissue after FTY720 treatment (Table 2). […] According to non-limiting theory, simultaneous inhibition of SPL may account for the stability of tissue S1P levels in response to drug treatment.

For `CCCCCCCCc1ccc(CCC(N)(CO)CO)cc1` [FTY720], the “S1P (spleen)” value (24 hours after FTY720) was 15121.31 picomoles per gram of wet weight tissue, the “S1P (spleen)” value (36 hours after FTY720) is recorded as 18482.30 picomoles per gram of wet weight tissue and the “S1P (spleen)” value (48 hours after FTY720) was 12365.84 picomoles per gram of wet weight tissue. The “Dihydrosphingosine-1-P (DHS1P) tissue levels” value (throughout 48 hours of treatment) is on record as “remained stable”. The “S1P (thymus)” value is recorded as 3000.69 picomoles per gram of wet weight tissue (24 hours after FTY720), 3917.48 picomoles per gram of wet weight tissue (36 hours after FTY720) and 3194.45 picomoles per gram of wet weight tissue (48 hours after FTY720).

The record behind these values is US8124111B2, “Immunomodulation by altering sphingosine 1-phosphate lyase (SPL) activity” (Children's Hospital & Research Center at Oakland, priority 2005, dated 2012).
